Reference: patent publication US20160122387A1, “Angiotensin Peptide and Pharmaceutical Compositions for Disease Treatment” (UNIVERSIDADE FEDERAL DE MINAS GERAIS - UFMG, priority 2012, published 2016)

What was measured:
[1] = target: T1, rat receptor Mas (Rattus norvegicus, UniProt P12526); assay: Nitric oxide production in CHO cells transfected with the Mas receptor (DAF-FM fluorescence); assay type: cell-based; settings: 10^−7 mol/L, 60 minutes
T1 construct: expressed in transfected cells
T1 sequence (P12526 1-324): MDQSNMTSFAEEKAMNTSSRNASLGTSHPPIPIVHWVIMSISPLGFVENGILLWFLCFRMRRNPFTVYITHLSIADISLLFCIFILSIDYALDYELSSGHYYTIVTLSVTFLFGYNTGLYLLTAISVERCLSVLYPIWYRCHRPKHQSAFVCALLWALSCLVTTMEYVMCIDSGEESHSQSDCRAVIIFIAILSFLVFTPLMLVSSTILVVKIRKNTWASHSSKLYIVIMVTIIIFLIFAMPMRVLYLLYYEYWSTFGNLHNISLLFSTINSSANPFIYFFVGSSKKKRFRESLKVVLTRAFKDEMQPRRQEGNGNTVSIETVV
Description: Chinese hamster ovary cells (CHO) were stably transfected with the cDNA of the rat receptor Mas driven by a cytomegalovirus promoter and selected using neomycin. Nitric oxide production was monitored using the indicator NO 4-amino-5-methylamino-2′,7′-difluorofluorescent diacetate.
Confluent CHO cells transfected with the Mas receptor and cultured in 6-well plates were preincubated in 1.5 ml of serum free medium (DMEM) containing DAF-FM (least 5 uM) and supplemented with 0.2% BSA, 0.005% bacitracin, […] phenylmethylsulfonyl fluoride and […] 1, 10-phenanthroline at 37° C. in a humidified incubator in an atmosphere with 5% CO2. After 30 minutes, cells were washed and incubated with arg0-Ang-(1-7) and Ang-(1-7) at 10^−7 mol/L for 60 minutes. Subsequently, the cells were washed twice and the slides were mounted for confocal microscopy for evaluation.
Relative fluorescence measurements were made using a Zeiss LSM 510 laser scanning META confocal microscope excited at 488 nm with an argon-ion laser (objective lens immersion oil, 63×).
Results are presented as mean±SEM. One-way analysis of variance with Bonferroni post-test for multiple comparisons was used to compare the concentration-response curve in CHO cells transfected with the receptor Mas. All statistical analyses were considered significant when p<0.05.

[2] = test system: thoracic aortic rings of normotensive Wistar rats; assay: Vasorelaxation in thoracic aortic rings of normotensive Wistar rats pre-contracted with phenylephrine; design: species or system rat; settings: aortic rings of Wistar and SHR rats (FIGS. 2A and 2B)
Description: (§1) Three- to four-mm rings of the descending thoracic aorta, free from adipose and connective tissue, were maintained in a gasified solution (95% 02 and 5% CO2) of Krebs-Henseleit, at 37° C. under 1.0 g tension, 1 hour for stabilization. The presence of functional endothelium was assessed by the ability of acetylcholine [ACh] (10 μmol/L) to induce more than 70% relaxation of vessels pre-contracted with phenylephrine (Phe) ([…]). The mechanical activity, recorded isometrically by a force transducer, was fed into a recorder-amplifier and a computer equipped with an analog-digital converter board, using CVMS data acquisition/recording software.
(§2) The vessels from normotensive Wistar rats and spontaneously hypertensive rats (SHR) were pre-contracted in the same voltage level (approximately 1.0 g tension) at the submaximal concentration of phenylephrine ([…]). Arg0-Ang-(1-7) and Ang-(1-7) were added in increasing cumulative concentrations as the response to phenylephrine was stabilized. Results are presented as mean±SEM. One-way analysis of variance (ANOVA) with Newman-Keuls post test of multiple comparisons was used to compare the concentration response curves obtained in the aortic rings. The vasodilatation effect of arg0-Ang-(1-7) and Ang-(1-7) was expressed as the percentage of decrease in peak concentration induced by phenylephrine. […]

[3] = test system: Human alveolar adenocarcinoma cells (A549); assay: Anti-proliferative effect in A549 cells (AlamarBlue cell viability); assay type: cell-based; settings: 1×10^−4 to 2×10^−7M, 48 hours
Description: Human alveolar adenocarcinoma cells (A549), cultured in DEMEM supplemented with 10% fetal bovine serum and 1% penicillin/streptomycin, were distributed into 96 wells plate at the density of 2×10^4 cells/well. After 48 hours of incubation in an incubator at 37° C., the arg0-angiotensin-(1-7) and angiotensin (1-7) peptides were added to the wells and serially diluted (1×10^−4 to 2×10^−7M) in culture medium free of fetal bovine serum. Wells not plated with cells and wells with cells but stimulated only with culture medium were used as controls. The stimulus, which lasted 48 hours, was followed by the addition of AlamarBlue reagent (Invitrogen), used to detect cell viability.

[4] = test system: thoracic aortic rings of spontaneously hypertensive rats (SHR); assay: Vasorelaxation in thoracic aortic rings of spontaneously hypertensive rats (SHR) pre-contracted with phenylephrine; design: species or system rat; settings: percentage of decrease of phenylephrine contraction
Description: as §1, §2

[5] = test system: mesenteric artery rings of SHR; assay: Vasorelaxation in mesenteric artery rings of SHR; design: species or system rat; settings: expressed as percentage of decrease of phenylephrine contraction
Description: Rings (2.0 mm) of mesenteric artery (2nd and/or 3rd branches) in spontaneously hypertensive rats (SHR), free from adipose and connective tissue, were maintained in a gasified solution (95% 02 and 5% CO2) of Krebs-Hanseleit to 37° C. After a 15 minute stabilization period, the artery was stretched, gradually, to a resting tension considered optimal with respect to its inner diameter. In each arterial segment, the voltage/diameter was calculated by the internal circumference which corresponds to a transmural pressure of 100 mmHg for a relaxed vessel in situ (IC100) using software specific for standardization resistance arteries. For the experiments, the arteries were maintained with an internal circumference, IC1, calculated using the formula IC1=0.90×IC100, in which the development of strength is maximum, as previously described by Mulvany and Halpern (1977). The effective luminal diameter was determined according to the I1=IC1/π equation. The diameter of the vessels used ranged from 200 to 300 μm.
The arteries were stimulated with a high concentration of potassium chloride (KCl 120 mmol/1), in order to assess their functional integrity. […]
The presence of functional endothelium was assessed by the ability of acetylcholine [ACh] […] The mechanical activity was recorded isometrically using a myograph, and this was connected to a system for data acquisition and a computer. […]

nitric oxide production [1]: stimulated nitric oxide production
Substance: Asp-Arg-Val-Tyr-Ile-His-Pro [Ang-(1-7)]
endothelium dependence of the vasorelaxant effect [2]: endothelium-dependent | anti-proliferative effect [3]: anti-proliferative effect | Emax of vasorelaxation [4]: 30±3% | Emax of vasorelaxation [5]: 28%
